Biological target: T1, SARM1 (50-724) (Homo sapiens, UniProt Q6SZW1)
T1 sequence (Q6SZW1 50-724): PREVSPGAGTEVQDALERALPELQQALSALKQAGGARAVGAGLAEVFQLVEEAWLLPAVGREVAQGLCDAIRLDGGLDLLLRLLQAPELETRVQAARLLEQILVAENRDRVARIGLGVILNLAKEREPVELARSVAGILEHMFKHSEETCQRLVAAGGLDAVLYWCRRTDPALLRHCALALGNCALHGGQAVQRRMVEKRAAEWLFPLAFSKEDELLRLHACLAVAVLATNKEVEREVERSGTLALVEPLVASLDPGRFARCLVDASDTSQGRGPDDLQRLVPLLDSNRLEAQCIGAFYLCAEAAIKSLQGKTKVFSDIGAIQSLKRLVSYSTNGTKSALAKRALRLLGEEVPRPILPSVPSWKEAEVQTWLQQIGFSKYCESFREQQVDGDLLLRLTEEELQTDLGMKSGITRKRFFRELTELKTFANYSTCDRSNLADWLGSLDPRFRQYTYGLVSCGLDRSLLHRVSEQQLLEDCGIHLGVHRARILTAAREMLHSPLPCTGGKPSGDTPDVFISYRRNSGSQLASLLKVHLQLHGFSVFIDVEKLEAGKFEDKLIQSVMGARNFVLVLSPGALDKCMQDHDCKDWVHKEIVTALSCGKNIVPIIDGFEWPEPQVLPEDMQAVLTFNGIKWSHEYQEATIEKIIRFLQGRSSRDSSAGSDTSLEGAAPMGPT
Test: biochemical
Experimental: An enzymatic assay was performed in a 384-well plate using Dulbecco's phosphate-buffered saline (PBS) as the reaction buffer. […] The reaction was initiated by adding a mixture of 200 μM nicotinamide mononucleotide (NMN) as activator and 100 μM NAD^+ as substrate. After 1 h of incubation at room temperature, the reaction was terminated with 10 times volume of 70% acetonitrile, then centrifuged at 3800 rpm for 10 min.

SMILES | IC50
CC[C@H](C(N)=O)c1ccc(N[C@H](C)c2nc(Cl)c(Cl)s2)cc1 (single isomer, unassigned) [Compound 302A] | > 1 µM
Cc1ccc(F)cc1S(=O)(=O)Nc1ccc2c(c1)C(=O)NCC2 [Compound 10, 5-fluoro-2-methyl-N-(1-oxo-1,2,3,4-tetrahydroisoquinolin-7-yl)benzenesulfonamide] | > 1 µM
CC(C(N)=O)c1ccc(NS(=O)(=O)c2cccc(Cl)c2Cl)cc1 (racemic) [Compound 196, 2-(4-((2,3-dichlorophenyl)sulfonamido)phenyl)propanamide] | < 0.1 µM
Cc1c(F)cccc1S(=O)(=O)Nc1ccc2c(c1)C(=O)OCC2 [Compound 5, 3-fluoro-2-methyl-N-(1-oxoisochroman-7-yl)benzenesulfonamide] | > 1 µM
Cc1c(F)cccc1S(=O)(=O)Nc1ccc2c(c1)C(=O)N(C)CC2 [Compound 21, 3-fluoro-2-methyl-N-(2-methyl-1-oxo-1,2,3,4-tetrahydroisoquinolin-7-yl)benzenesulfonamide] | 0.1 to 0.5 µM
CC(Nc1ccc2c(c1)c(N)nn2C)c1nc(Cl)c(Cl)s1 (centres unmarked) [Compound 288, N5-(1-(4,5-dichlorothiazol-2-yl)ethyl)-1-methyl-1H-indazole-3,5-diamine] | < 0.1 µM
Cc1ccnc2cc(NS(=O)(=O)c3cccc(Cl)c3Cl)ccc12 [Compound 16, 2,3-dichloro-N-(4-methylquinolin-7-yl)benzenesulfonamide] | 0.1 to 0.5 µM
CC[C@@H](C(N)=O)c1ccc(N[C@H](C)c2nc(Cl)c(Cl)s2)cc1 (single isomer, unassigned) [Compound 302B] | > 1 µM
CC(Nc1cc(F)c2nc[nH]c(=O)c2c1)c1nc(Cl)c(Cl)s1 (racemic) [Compound 271, 6-((1-(4,5-dichlorothiazol-2-yl)ethyl)amino)-8-fluoroquinazolin-4(3H)-one] | < 0.1 µM
NC(=O)c1cccc2ccc(NS(=O)(=O)c3cccc(Cl)c3Cl)cc12 [Compound 87, 7-((2,3-dichlorophenyl)sulfonamido)-1-naphthamide] | 0.1 to 0.5 µM
CC(Nc1ccc2nc[nH]c(=O)c2n1)c1c(Cl)ccc(F)c1Cl (racemic) [Compound 259, 6-((1-(2,6-dichloro-3-fluorophenyl)ethyl)amino)pyrido[3,2-d]pyrimidin-4(3H)-one] | < 0.1 µM
O=c1[nH]ccc2ccc(NS(=O)(=O)c3cccc(Cl)c3Cl)cc12 [Compound 22, 2,3-dichloro-N-(1-oxo-1,2-dihydroisoquinolin-7-yl)benzenesulfonamide] | < 0.1 µM
CC(Nc1ccc2ccn(CCO)c(=O)c2c1)c1nc(Cl)c(Cl)s1 (racemic) [Compound 305, 7-((1-(4,5-dichlorothiazol-2-yl)ethyl)amino)-2-(2-hydroxyethyl)isoquinolin-1(2H)-one] | < 0.1 µM
CC1(C)Cc2ccc(NS(=O)(=O)c3cccc(Cl)c3Cl)cc2NC1=O [Compound 268, 2,3-dichloro-N-(3,3-dimethyl-2-oxo-1,4-dihydroquinolin-7-yl)benzenesulfonamide] | 0.1 to 0.5 µM
O=S(=O)(Nc1cccc(-c2ncco2)c1)c1cccc(Cl)c1Cl [Compound 64, 2,3-dichloro-N-(3-oxazol-2-ylphenyl)benzenesulfonamide] | 0.1 to 0.5 µM
Cc1c(Cl)c(C(C)Nc2ccc3cc[nH]c(=O)c3c2)nn1C (single isomer, unassigned) [Compound 226A] | > 1 µM
O=C1NCCc2ccc(NS(=O)(=O)N3CC4CCCC4C3)cc21 (centres unmarked) [Compound 49, N-(1-oxo-3,4-dihydro-2H-isoquinolin-7-yl)-3,3a,4,5,6,6a-hexahydro-1H-cyclopenta[c]pyrrole-2-sulfonamide] | > 1 µM
CC1(C)C(=O)Nc2cc(NS(=O)(=O)c3c(Cl)ccc(Cl)c3Cl)ccc21 [Compound 209, 2,3,6-trichloro-N-(3,3-dimethyl-2-oxoindolin-6-yl)benzenesulfonamide] | < 0.1 µM
O=S(=O)(Nc1ccc2csnc2c1)c1cccc(Cl)c1Cl [Compound 59, N-(benzo[c]isothiazol-6-yl)-2,3-dichlorobenzenesulfonamide] | 0.1 to 0.5 µM
COC(=O)C1Cc2ccc(NS(=O)(=O)c3cccc(Cl)c3Cl)cc2C(=O)N1 (racemic) [Compound 90, methyl 7-((2,3-dichlorophenyl)sulfonamido)-1-oxo-1,2,3,4-tetrahydroisoquinoline-3-carboxylate] | 0.1 to 0.5 µM

More lines, now with the values ahead:

IC50 | SMILES
< 0.1 µM | Cc1n[nH]c(=O)c2cc(NC(C)c3scc(Cl)c3Cl)ccc12 (racemic) [Compound 342, 7-((1-(3,4-dichlorothiophen-2-yl)ethyl)amino)-4-methylphthalazin-1(2H)-one]
< 0.1 µM | Cc1c2ccc(NC(C)(C)c3nc(Cl)c(Cl)s3)cc2nn1CC(N)=O [Example 360, 2-(6-((2-(4,5-dichlorothiazol-2-yl)propan-2-yl)amino)-3-methyl-2H-indazol-2-yl)acetamide]
> 1 µM | Cc1cc(F)ccc1S(=O)(=O)Nc1ccc2c(c1)C(=O)NCC2 [Example 4A, 4-fluoro-2-methyl-N-(1-oxo-1,2,3,4-tetrahydroisoquinolin-7-yl)benzenesulfonamide]
> 1 µM | Cc1c(F)cccc1S(=O)(=O)Nc1cccc(-c2ccc[nH]c2=O)c1 [Example 162, 3-fluoro-2-methyl-N-[3-(2-oxo-1,2-dihydropyridin-3-yl)phenyl]benzenesulfonamide]
0.1 to 0.5 µM | CC(Nc1ccc2cc[nH]c(=O)c2c1)c1sc(Cl)nc1Cl (racemic) [Example 130, 7-((1-(2,4-dichlorothiazol-5-yl)ethyl)amino)isoquinolin-1(2H)-one]
> 1 µM | Cc1ccc(C)c(S(=O)(=O)Nc2ccc3c(c2)C(=O)NCC3)c1 [Example 2A, 2,5-dimethyl-N-(1-oxo-1,2,3,4-tetrahydroisoquinolin-7-yl)benzenesulfonamide]
0.5 to 1 µM | CC(Nc1ccc2nc[nH]c(=O)c2c1)c1cccc(Cl)c1Cl (single isomer, unassigned) [Example 152A]
> 1 µM | [2H]C(C)(Nc1ccc2c(C)n(CC(N)=O)nc2c1)c1nc(Cl)c(Cl)s1 (single isomer, unassigned) [Compound 378]
> 1 µM | CC(Nc1ccc2ccccc2n1)c1cccc(Cl)c1Cl (racemic) [Example 134, N-(1-(2,3-dichlorophenyl)ethyl)quinolin-2-amine]
0.1 to 0.5 µM | CCC(Nc1ccc2c(c1)C(=O)NCC2)c1nccc(Cl)c1Cl (racemic) [Example 154, 7-((1-(3,4-dichloropyridin-2-yl)propyl)amino)-3,4-dihydroisoquinolin-1(2H)-one]
< 0.1 µM | CC(Nc1ccc2c(C(F)F)n(CC(N)=O)nc2c1)c1nc(Cl)c(Cl)s1 (single isomer, unassigned) [Compound 355A]
0.1 to 0.5 µM | CC(Nc1ccc2nc[nH]c(=O)c2n1)c1ccc(F)c(Cl)c1Cl (racemic) [Compound 384, 6-((1-(2,3-dichloro-4-fluorophenyl)ethyl)amino)pyrido[3,2-d]pyrimidin-4(3H)-one]
< 0.1 µM | CC(Nc1cc(F)c2c(c1)C(=O)N(CC(N)=O)C2(C)C)c1nc(Cl)c(Cl)s1 (racemic) [Compound 328, 2-(5-((1-(4,5-dichlorothiazol-2-yl)ethyl)amino)-7-fluoro-1,1-dimethyl-3-oxoisoindolin-2-yl)acetamide]
< 0.1 µM | CC(Nc1ccc2c(Cl)n(CC(N)=O)nc2c1)c1nc(Cl)c(Cl)s1 (racemic) [Compound 361, 2-(3-chloro-6-((1-(4,5-dichlorothiazol-2-yl)ethyl)amino)-2H-indazol-2-yl)acetamide]
< 0.1 µM | CC(Nc1cc(F)c2ncn(-c3ncnn3C)c(=O)c2c1)c1nc(Cl)c(Cl)s1 (racemic) [Example 373, 6-((1-(4,5-dichlorothiazol-2-yl)ethyl)amino)-8-fluoro-3-(1-methyl-1H-1,2,4-triazol-5-yl)quinazolin-4(3H)-one]
< 0.1 µM | CC1(C)C(=O)Nc2cc(NC(CO)c3c(Cl)ccc(F)c3Cl)ccc21 (racemic) [Example 238, 6-((1-(2,6-dichloro-3-fluorophenyl)-2-hydroxyethyl)amino)-3,3-dimethylindolin-2-one]
< 0.1 µM | CC1(C)C(=O)N(CC(=O)NCCO)c2cc(NS(=O)(=O)c3cccc(Cl)c3Cl)ccc21 [Example 287, 2-(6-((2,3-dichlorophenyl)sulfonamido)-3,3-dimethyl-2-oxoindolin-1-yl)-N-(2-hydroxyethyl)acetamide]
< 0.1 µM | Cc1n[nH]c(=O)c2cc(NC(C)c3nn(C)c(Cl)c3Cl)cc(F)c12 (racemic) [Compound 316, 7-((1-(4,5-dichloro-1-methyl-1H-pyrazol-3-yl)ethyl)amino)-5-fluoro-4-methylphthalazin-1(2H)-one]
< 0.1 µM | CC(Nc1ccc2cc[nH]c(=O)c2c1)c1ccc(F)c(Cl)c1Cl (racemic) [Example 203, 7-[1-(2,3-dichloro-4-fluoro-phenyl)ethylamino]-2H-isoquinolin-1-one]
< 0.1 µM | CC(Nc1ccc2c(c1)C(=O)NCC2)c1cccc(Cl)c1Cl (single isomer, unassigned) [Example 111]
< 0.1 µM | CC(Nc1ccc2cc[nH]c(=O)c2c1)c1cc(F)ccc1Cl (racemic) [Example 135, 7-((1-(2-chloro-5-fluorophenyl)ethyl)amino)isoquinolin-1(2H)-one]

Source: patent US20250320184A1 (SIRONAX LTD., priority 2022, published 2025)
